Data published in patent publication US4609733A, “3-keto-substituted-N-pyridylindoles” (Ciba-Geigy Corporation, priority 1984, dated 1986).
pIC50: −log10 of the molar value.

Experiments:
[1] = target: T1, prostaglandin cyclooxygenase (Bos taurus, UniProt O62664); experiment: in-vitro effect on prostaglandin cyclooxygenase; format: biochemical; settings: read-out: IC50 for cyclooxygenase inhibition
T1 construct: from tissue; host or cells: bovine seminal vesicles (microsomes)
T1 sequence (O62664 25-600): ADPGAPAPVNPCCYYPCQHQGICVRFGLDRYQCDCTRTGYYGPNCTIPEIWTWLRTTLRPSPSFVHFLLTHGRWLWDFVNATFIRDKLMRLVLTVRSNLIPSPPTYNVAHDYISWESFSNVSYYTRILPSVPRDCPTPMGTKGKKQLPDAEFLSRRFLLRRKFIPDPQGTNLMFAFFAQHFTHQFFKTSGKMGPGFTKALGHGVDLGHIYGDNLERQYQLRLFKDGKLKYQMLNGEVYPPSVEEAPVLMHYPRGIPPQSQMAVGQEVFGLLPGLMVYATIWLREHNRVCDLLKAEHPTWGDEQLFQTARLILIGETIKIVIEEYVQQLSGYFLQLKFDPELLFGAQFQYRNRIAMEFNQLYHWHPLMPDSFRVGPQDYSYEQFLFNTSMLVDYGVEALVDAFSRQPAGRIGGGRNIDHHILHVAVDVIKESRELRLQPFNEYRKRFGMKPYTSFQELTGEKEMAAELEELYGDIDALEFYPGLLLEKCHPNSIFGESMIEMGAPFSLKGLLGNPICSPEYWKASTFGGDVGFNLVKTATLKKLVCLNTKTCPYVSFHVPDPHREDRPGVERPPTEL
Protocol: The in-vitro effect on prostaglandin cyclooxygenase is measured by a modification of the method of Takeguchi et al. described in Biochemistry 10, 2372 (1971); the testing procedure is described in U.S. Pat. No. 4,460,777.

thromboxane synthetase = target: T2, thromboxane synthetase (Homo sapiens, UniProt P24557); experiment: in vitro inhibition of the thromboxane synthetase enzyme; format: biochemical
T2 construct: from tissue; host or cells: human platelets (microsomes)
T2 sequence (P24557 1-533): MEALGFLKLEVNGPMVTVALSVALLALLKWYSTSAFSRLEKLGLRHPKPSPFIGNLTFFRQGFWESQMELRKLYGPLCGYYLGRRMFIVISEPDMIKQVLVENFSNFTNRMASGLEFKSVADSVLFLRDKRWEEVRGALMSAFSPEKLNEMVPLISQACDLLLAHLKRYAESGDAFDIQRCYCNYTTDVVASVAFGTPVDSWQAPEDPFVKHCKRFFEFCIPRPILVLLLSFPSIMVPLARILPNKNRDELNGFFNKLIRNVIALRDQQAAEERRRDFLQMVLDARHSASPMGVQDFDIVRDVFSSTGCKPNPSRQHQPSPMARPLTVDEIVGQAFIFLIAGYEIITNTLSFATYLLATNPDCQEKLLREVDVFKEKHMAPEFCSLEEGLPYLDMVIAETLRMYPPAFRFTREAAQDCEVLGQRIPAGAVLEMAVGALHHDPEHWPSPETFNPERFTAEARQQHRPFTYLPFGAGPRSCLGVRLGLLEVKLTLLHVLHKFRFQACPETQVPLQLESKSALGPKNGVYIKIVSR
Text: Res. Comm. 74, 1432 (1977). The testing procedure is essentially carried out as described in U.S. Pat. No. 4,460,777.

Row | Compound | pIC50 [1] | pIC50 (thromboxane synthetase)
1 | O=C(O)CCCCc1cn(-c2cccnc2)c2ccccc12 [3-(4-carboxybutyl)-N-(3-pyridyl)indole, 3-(4-carboxybutyl)-N-(3-pyridyl)-indole] | < 3.00 | –
2 | O=C(O)CCCC(=O)c1cn(-c2cccnc2)c2ccccc12 [Example 2, 3-(1-oxo-4-carboxybutyl)-N-(3-pyridyl)-indole] | – | ~6.40
